Measurements published in US20170333391A1, “METHOD FOR DELAYING THE ONSET OF PULMONARY FIBROSIS OR TREATING PULMONARY FIBROSIS” (EVERFRONT BIOTECH INC., priority 2016, published 2017).

Experiments:
type I collagen = assay: Type I collagen expression in transfected NHLF (pcDNA3.1 empty vector or pcDNA3.1-SOX2), western blotting (2-3); format: cell-based, human; conditions: TGF-β1 5 ng/ml 12 h
Description: The pcDNA3.1 empty vector and the pcDNA3.1-SOX2 plasmid (i.e., pcDNA3.1 vector containing SOX2 gene) were respectively transfected into Normal Human lung fibroblasts (NHLF) by the Fugene HD cell transfection reagent. The cells were screened to obtain NHLFs containing the pcDNA3.1 empty vector or the pcDNA3.1-SOX2 plasmid.
NHLFs containing the pcDNA3.1 empty vector were then seeded into 6 cm culture dishes at a density of 2×10^5 cells/dish, comprising a control group and three experimental groups (4 dishes in total). The cells were cultured until the next day, and then the mediums were removed. Each group was respectively treated under the following conditions to conduct follow-up experiments: • (1) Control group I: cells were cultured in a FGM-2 medium containing 1% serum for 36 hours; • (2) Group A: cells were cultured in a FGM-2 medium containing 1% serum and TGF-β1 (5 ng/ml) for 36 hours; • (3) Group B: cells were firstly cultured in a FGM-2 medium containing 1% serum and TGF-β1 (5 ng/ml) for 12 hours, and then compound (1) was added into the medium to provide a final concentration of 15 μg/ml; thereafter, the cells were cultured for another 24 hours; and • (4) Group C: cells were firstly cultured in a FGM-2 medium containing 1% serum and TGF-β1 (5 ng/ml) for 12 hours, and then compound (1) was added into the medium to provide a final concentration of 30 μg/ml; thereafter, the cells were cultured for another 24 hours.
In another aspect, NHLFs containing the pcDNA3.1-SOX2 plasmid were seeded into the 6 cm culture dishes at a density of 2×10^5 cells/dish, comprising a control group and three experimental groups (4 dishes in total). The cells were cultured until the next day, and then the mediums were removed. Each group was respectively treated under the following conditions to conduct follow-up experiments: • (1) Control group II: cells were cultured in a FGM-2 medium containing 1% serum for 36 hours; • (2) Group D: cells were cultured in a FGM-2 medium containing 1% serum and TGF-β1 (5 ng/ml) for 36 hours; • (3) Group E: cells were firstly cultured in a FGM-2 medium containing 1% serum and TGF-β1 (5 ng/ml) for 12 hours, and then the compound (1) was added into the medium to provide a final concentration of 15 μg/ml; thereafter, the cells were cultured for another 24 hours; and • (4) Group F: cells were firstly cultured in a FGM-2 medium containing 1% serum and TGF-β1 (5 ng/ml) for 12 hours, and then the compound (1) was added into the medium to provide a final concentration of 30 μg/ml; thereafter, the cells were cultured for another 24 hours.
Thereafter, the proteins in the cells of each group were extracted, and the expressions of Sox2 protein, TGF-β protein and type I collagen in the NHLF cells of each group were measured with western blotting. […]

BMP-7 protein = BMP-7 protein expression in TGF-β1-induced NHLF, western blotting (2-2); format: cell-based, human; conditions: TGF-β1-only control group = 1
Description: Normal Human lung fibroblasts (NHLF) were seeded into 6 cm culture dishes at a density of 2×10^5 cells/dish, comprising a control group and six experimental groups (7 dishes in total). The cells were cultured until the next day, and then the mediums were removed. Each group was respectively treated under the following conditions to conduct follow-up experiments: • (1) Positive control group: cells were cultured in a FGM-2 medium containing 1% serum and TGF-β1 (5 ng/ml) for 36 hours; • (2) Group I: cells were firstly cultured in a FGM-2 medium containing 1% serum and TGF-β1 (5 ng/ml) for 12 hours, and then compound (1) was added into the medium to provide a final concentration of 15 μg/ml; thereafter, the cells were cultured for another 24 hours; • (3) Group II: cells were firstly cultured in a FGM-2 medium containing 1% serum and TGF-β1 (5 ng/ml) for 12 hours, and then compound (1) was added into the medium to provide a final concentration of 25 μg/ml; thereafter, the cells were cultured for another 24 hours; • (4) Group III: cells were firstly cultured in a FGM-2 medium containing 1% serum and TGF-β1 (5 ng/ml) for 12 hours, and then compound (1) was added into the medium to provide a final concentration of 35 μg/ml; thereafter, the cells were cultured for another 24 hours; • (5) Group IV: cells were firstly cultured in a FGM-2 medium containing 1% serum and TGF-β1 (5 ng/ml) for 12 hours, and then the Pirfenidone was added into the medium to provide a final concentration of 100 μg/ml; thereafter, the cells were cultured for another 24 hours; • (6) Group V: cells were firstly cultured in a FGM-2 medium containing 1% serum and TGF-β1 (5 ng/ml) for 12 hours, and then the Pirfenidone was added into the medium to provide a final concentration of 250 μg/ml; thereafter, the cells were cultured for another 24 hours; and • (7) Group VI: cells were firstly cultured in a FGM-2 medium containing 1% serum and TGF-β1 (5 ng/ml) for 12 hours, and then the Pirfenidone was added into the medium to provide a final concentration of 500 μg/ml; thereafter, the cells were cultured for another 24 hours.
Thereafter, the proteins in the cells of each group were extracted, and the expressions of type I collagen, BMP-7 protein and TGF-β protein in the NHLF cells of each group were measured with western blotting. The results of the control group served as the basis for calculating the relative expression levels of the other groups.

## CCCC=C1OC(=O)c2ccccc21 [compound (1)]
Type I collagen; Group B: NHLF with pcDNA3.1 empty vector, then compound (1) 15 μg/ml 24 h, control group I = 1, TGF-β1-only group A = 5.83
  Relative expression level (fold) Type I collagen: 3.74 fold
Type I collagen; Group C: NHLF with pcDNA3.1 empty vector, then compound (1) 30 μg/ml 24 h, control group I = 1, TGF-β1-only group A = 5.83
  Relative expression level (fold) Type I collagen: 0.88 fold
Type I collagen; Group E: NHLF with pcDNA3.1-SOX2 plasmid, then compound (1) 15 μg/ml 24 h, control group II = 1, TGF-β1-only group D = 1.57
  Relative expression level (fold) Type I collagen: 1.30 fold
Type I collagen; Group F: NHLF with pcDNA3.1-SOX2 plasmid, then compound (1) 30 μg/ml 24 h, control group II = 1, TGF-β1-only group D = 1.57
  Relative expression level (fold) Type I collagen: 1.29 fold
BMP-7 protein; Group I: TGF-β1 5 ng/ml 12 h, then compound (1) 15 μg/ml 24 h
  Relative expression level (fold) BMP-7 protein: 1.57 fold
BMP-7 protein; Group II: TGF-β1 5 ng/ml 12 h, then compound (1) 25 μg/ml 24 h
  Relative expression level (fold) BMP-7 protein: 1.80 fold
BMP-7 protein; Group III: TGF-β1 5 ng/ml 12 h, then compound (1) 35 μg/ml 24 h
  Relative expression level (fold) BMP-7 protein: 1.68 fold
